Biological target: Multidrug resistance-associated protein 1 (Homo sapiens, UniProt P33527)
Assay: TP_TRANSPORTER: efflux in MCF7/VP and MCF cells
Format: functional, cell-based

Chain of Multidrug resistance-associated protein 1 (P33527 whole entry): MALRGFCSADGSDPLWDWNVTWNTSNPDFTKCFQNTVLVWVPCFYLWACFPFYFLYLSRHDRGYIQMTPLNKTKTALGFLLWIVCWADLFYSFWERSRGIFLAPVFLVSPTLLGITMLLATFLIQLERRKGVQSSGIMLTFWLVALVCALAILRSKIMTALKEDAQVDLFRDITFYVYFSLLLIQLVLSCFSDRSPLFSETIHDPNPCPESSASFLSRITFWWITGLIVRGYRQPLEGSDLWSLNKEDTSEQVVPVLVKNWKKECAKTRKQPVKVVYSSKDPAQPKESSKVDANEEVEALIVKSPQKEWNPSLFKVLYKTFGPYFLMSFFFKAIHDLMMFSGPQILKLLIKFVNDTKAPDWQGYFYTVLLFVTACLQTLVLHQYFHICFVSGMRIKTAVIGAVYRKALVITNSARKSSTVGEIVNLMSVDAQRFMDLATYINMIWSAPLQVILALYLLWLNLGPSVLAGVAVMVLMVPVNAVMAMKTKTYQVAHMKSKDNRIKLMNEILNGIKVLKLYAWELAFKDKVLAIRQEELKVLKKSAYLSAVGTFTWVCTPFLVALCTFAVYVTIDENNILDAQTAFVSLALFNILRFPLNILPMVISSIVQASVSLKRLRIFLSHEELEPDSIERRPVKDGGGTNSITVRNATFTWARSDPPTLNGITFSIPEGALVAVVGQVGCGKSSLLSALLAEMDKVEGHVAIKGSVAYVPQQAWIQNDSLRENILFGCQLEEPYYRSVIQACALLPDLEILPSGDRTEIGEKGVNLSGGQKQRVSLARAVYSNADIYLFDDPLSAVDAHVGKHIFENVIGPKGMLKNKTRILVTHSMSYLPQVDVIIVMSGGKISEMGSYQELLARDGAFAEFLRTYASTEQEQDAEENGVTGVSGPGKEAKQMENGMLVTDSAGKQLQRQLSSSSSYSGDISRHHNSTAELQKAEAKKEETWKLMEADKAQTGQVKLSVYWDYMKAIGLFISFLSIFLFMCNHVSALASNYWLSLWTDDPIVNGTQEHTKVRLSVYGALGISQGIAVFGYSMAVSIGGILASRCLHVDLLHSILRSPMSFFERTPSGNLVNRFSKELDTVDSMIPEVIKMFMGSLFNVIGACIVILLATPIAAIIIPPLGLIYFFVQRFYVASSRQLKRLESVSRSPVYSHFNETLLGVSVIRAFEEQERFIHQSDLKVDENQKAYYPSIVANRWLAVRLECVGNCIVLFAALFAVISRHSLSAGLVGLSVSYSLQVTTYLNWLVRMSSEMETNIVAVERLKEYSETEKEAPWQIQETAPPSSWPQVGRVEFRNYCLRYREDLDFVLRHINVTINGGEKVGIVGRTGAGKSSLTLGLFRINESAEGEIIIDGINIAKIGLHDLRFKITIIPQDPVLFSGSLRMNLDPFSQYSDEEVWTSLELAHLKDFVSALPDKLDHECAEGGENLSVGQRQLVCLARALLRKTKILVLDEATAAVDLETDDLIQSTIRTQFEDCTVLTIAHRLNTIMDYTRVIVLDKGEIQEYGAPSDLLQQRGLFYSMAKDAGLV

In the case of `O=C1c2c(O)ccc(O)c2C(=O)c2c(NCCNCCO)ccc(NCCNCCO)c21` [MITOXANTRONE], the Activity is reported as “substrate [+]”.

— ChEMBL document CHEMBL2074577, “Resistance to mitoxantrone in multidrug-resistant MCF7 breast cancer cells: evaluation of mitoxantrone transport and the role of multidrug resistance protein family proteins” (Cancer Res, 2001)
